This is an account of results in patent US10011592B2, “Polycyclic inhibitor of anaplastic lymphoma kinase” (XUANZHU PHARMA CO., LTD., priority 2014, dated 2018).

As a reminder, the IC50 is the concentration that gives 50% inhibition. For orientation: bioavailability means the share of a dose that reaches the circulation, judged against a reference dose that is usually intravenous. Lower therefore signals poor availability.

Series [1] has as its target T1, ALK kinase (Homo sapiens, UniProt Q9UM73). Briefly: In vitro ALK kinase-inhibiting activity (SA-XL665/tyrosine kinase antibody, 665 nm/615 nm read). The series is classed as biochemical. To be noted: Experimental Example 1; 25° C., 30 min enzymatic reaction; read-out: ALK enzyme-inhibiting activity IC50. How it is done: Preparation of ALK Kinase Buffer:
(§1) The resultant mixture was mixed homogeneously, for later usage.
as §1
Preparation of a stock solution of compound at a concentration of 1 mM: a suitable amount of compound (please see the following table for sample weight) was weighed, and dissolved by adding a suitable amount of DMSO. The resultant mixture was mixed homogeneously, for later usage.
Each of the 1 mM stock solutions was diluted with DMSO to a 200 μM solution, which was used as initial solution. Each of said initial solutions was 3-fold diluted with DMSO to prepare a series of solutions of different concentrations, and then the solution of each concentration was diluted with the ALK kinase buffer by 80 folds to prepare a 2.5×test compound solution.
Preparation of Other Reagents:
5×ALK kinase solution, 5×substrate solution, and 5×ATP solution, were prepared by using the ALK kinase buffer, for later usage.
1) 4 μL 2.5× test compound solution and 2 μL 5×ALK kinase solution were added to the corresponding wells in a 384-well plate, respectively, and incubated at 25° C. for 10 min.
2) To the corresponding wells, 2 μL 5× substrate solution and 2 μL 5×ATP solution were further added to start the enzymatic reaction, and incubation was performed at 25° C. for 30 min.
Detection buffer was used to prepare SA-XL665 at a desired concentration, which was then mixed homogeneously with the same volume of tyrosine kinase antibody. To the corresponding wells, 10 μL said antibody solution was added, and the reaction was stopped. Incubation was performed at 25° C. for 1 h.
IC50: Inhibition rate (%)=(maximal value-sample value)/(maximal value-minimal value)×100, wherein Graph prism software was used in curve fitting to get IC50 value.
Maximal value: positive control without addition of compound; minimal value: negative control without addition of enzyme.

The next series deals with NCI-H2228. Briefly: In vitro cell activity, NCI-H2228, CTG detection. To be noted: Homo sapiens, read-out: cell-inhibiting activity IC50, NCI-H2228. It is filed as cell-based. How it is done:
Cells were digested with pancreatin. After centrifugation at 1000 rpm for 4 min, the supernatant was removed. […] The cell suspension (100 μL) was seeded to a 96-well plate to obtain a final cell density of 2000 cells/well.
(3.1) Preparation of test compound solutions: a suitable amount of test compound (please see the following table for sample weight) was weighed, and dissolved by adding a suitable amount of DMSO. The resultant mixture was mixed homogeneously, and diluted gradiently with DMSO to prepare a series of solutions of different concentrations, for later usage.
Solvent control: 0.5% DMSO.
(§2) Cell control: cell seeding only, with no addition of compound.
(§3) Blank control: medium, for zero setting in an instrument.
(3.3) The 96-well plate was cultured in a 37° C., 5% CO2 incubator for 96 h.
(1) 80 μL medium was removed from each well in the 96-well plate, and the plate was placed at room temperature for 30 min.
(2) 60 μL CellTiter-Glo® reagent was added to each test well in the 96-well plate.
(3) The 96-well plate was shaken for 2 min in dark to mix the mixture homogeneously in a microplate shaker, so as to lyse the cells.
(4) The 96-well plate was incubated in dark at room temperature for 10 min, to keep the light signal value stable.
(5) The results were read by Microplate Reader in luminescence mode.
IC50 calculation: cell inhibition rate (%)=(ODmaximal value−ODcompound)/(ODmaximal value−ODblank value)×100, wherein Graph prisim software is used in curve fitting to get IC50 value.
ODmaximal value: cell control with the addition of solvent and no compound, ODblank value: medium blank control.

Another series has as its system NCI-H3122. Briefly: In vitro cell activity, NCI-H3122, MTS detection. The series is classed as cell-based. To be noted: Homo sapiens, read-out: cell-inhibiting activity IC50, NCI-H3122. How it is done: (§4) Cells were digested with pancreatin. After centrifugation at 1000 rpm for 4 min, the supernatant was removed. […] The cell suspension (90 μL) was seeded to a 96-well plate to obtain a final cell density of 3000 cells/well; and then cultured in a 5% CO2, 37° C. incubator for 24 h.
(§5) Preparation of test compound solutions: a suitable amount of test compound (please see the following table for sample weight) was weighed, and diluted gradiently with DMSO to prepare a series of stock solutions of different concentrations (1000×test compound solution). Each of said stock solutions was further diluted by 100 folds with medium to obtain a 10×test compound solution.
(§6) Solvent control: 0.1% DMSO.
as §2, §3
(§7) (3.3) The 96-well plate was cultured in a 37° C., 5% CO2 incubator for 72h.
(§8) (1) The reagents in CellTiter 96®AQueous One Solution Cell Proliferation Assay (MTS) were placed at room temperature for 90 min.
(§9) (2) To each test well in the 96-well plate, 20 μL CellTiter 96® A Queous One Solution reagent was added.
(§10) (3) The 96-well plate was cultured in a 37° C., 5% CO2 incubator for 40 min.
(§11) (4) The results were read by Microplate Reader at 490 nm.
(§12) IC50 calculation: cell survival rate (%)=(ODsample value−ODblank value)/(ODmaximal value−ODblank value)×100, wherein Graph prisim software is used in curve fitting to get IC50 value.
(§13) ODmaximal value: cell control with the addition of solvent and no compound, ODblank value: blank control value.

The next series deals with Karpas-299. Briefly: In vitro cell activity, Karpas-299, MTS detection. To be noted: Homo sapiens, read-out: cell-inhibiting activity IC50, Karpas-299. It is filed as cell-based. On the procedure: as §4, §5, §6, §2, §3, §7, §8, §9, §10, §11, §12, §13
The target in series [2] is T1, ALK kinase. Briefly: In vitro ALK kinase inhibitory activity by Caliper Mobility Shift assay. It is filed as biochemical. The conditions noted are these: Experimental Example 2, 28° C., 1 h, read-out: ALK enzyme-inhibiting activity IC50. The text has this: Experimental method: Measurement of ALK kinase inhibitory activity by Caliper Mobility Shift assay.
1. Preparation of 1-Fold Kinase Buffer
2. Preparation of Stop Solution
3. Preparation of 5-Fold Test Compound Solutions:
Preparation of a DMSO stock solution of test compound: a suitable amount of compound (please see the following table for sample weight) was weighed, and dissolved by adding a suitable amount of DMSO. The resultant mixture was mixed homogeneously, for later usage.
Said DMSO stock solution of test compound was diluted with DMSO to a solution at a concentration of 50 μM, which was used as initial solution. Said initial solution was subjected to 4-fold gradient dilution with DMSO, and the solution at each concentration was 10-fold diluted with 1-fold kinase buffer to prepare a 5-fold test compound solution.
4. Preparation of Other Reagents:
2.5×ALK kinase solution and 2.5× polypeptide solution were prepared by using the 1-fold kinase buffer, for later usage.
1) 5 μL 5-fold test compound solution and 10 μL 2.5-fold kinase solution were added to the corresponding wells in a 384-well plate, and incubated at room temperature for 10 min.
The enzymatic reaction was started, and the incubation was performed at 28° C. for 1 h.
To the corresponding wells, 25 μL stop solution was added to stop the reaction. Data was read by Caliper device, and the inhibition rate was calculated by the data,
Inhibition rate (%)=(maximal value-sample value)/(maximal value-minimal value)×100, wherein XLFIT software was used in curve fitting to get IC50 value.
Maximal value: positive control without addition of test compound; minimal value: negative control without addition of enzyme.

A further series can be described thus: Pharmacokinetics in rat. It is filed as in vivo. To be noted: plasma, iv 2 mg/kg, po 5 mg/kg. On the procedure:
Experimental Example 6 Assay on Pharmacokinetics of the Compounds Provided in Examples of the Invention in Rat
Test compounds: Compound 4, lab-made, the chemical name and preparation method of which can be found in the preparation example.
Internal standard: Alectinib, lab-made (prepared by reference to the method in Patent CN102459172A).
0.1% Tween 80+2% HPC: HPC (hydroxypropyl cellulose) (20 g) was weighed, and was added slowly to purified water (1000 mL) under stirring; Tween 80 (1 mL) was then added, and the resultant mixture was stirred until a clear solution was obtained, i.e. a blank solvent of 0.1% Tween 80+2% HPC.
A suitable amount of test compound (please see the following table for sample weight) was weighed, and said prepared solvent was added. The resultant mixture was placed in a tissue grinder, and was dispersed homogeneously at a rotation speed of 1000 r/min to get a solution for intragastric administration. […]
Protein precipitation method: to 30 μL plasma, 200 μL internal standard (acetonitrile solution containing 50 ng/mL Alectinib) was added; the resultant mixture was vortexed at 1000 r/min for 10 min, and then centrifuged at 4000 r/min for 20 min; to 100 μL supernatant, 100 μL water was added; the resultant mixture was mixed homogeneously under vortexing and analyzed by LC-MS/MS.

Where two headings read alike, the source gives them in different places.

T1 sequence (Q9UM73 19-1620): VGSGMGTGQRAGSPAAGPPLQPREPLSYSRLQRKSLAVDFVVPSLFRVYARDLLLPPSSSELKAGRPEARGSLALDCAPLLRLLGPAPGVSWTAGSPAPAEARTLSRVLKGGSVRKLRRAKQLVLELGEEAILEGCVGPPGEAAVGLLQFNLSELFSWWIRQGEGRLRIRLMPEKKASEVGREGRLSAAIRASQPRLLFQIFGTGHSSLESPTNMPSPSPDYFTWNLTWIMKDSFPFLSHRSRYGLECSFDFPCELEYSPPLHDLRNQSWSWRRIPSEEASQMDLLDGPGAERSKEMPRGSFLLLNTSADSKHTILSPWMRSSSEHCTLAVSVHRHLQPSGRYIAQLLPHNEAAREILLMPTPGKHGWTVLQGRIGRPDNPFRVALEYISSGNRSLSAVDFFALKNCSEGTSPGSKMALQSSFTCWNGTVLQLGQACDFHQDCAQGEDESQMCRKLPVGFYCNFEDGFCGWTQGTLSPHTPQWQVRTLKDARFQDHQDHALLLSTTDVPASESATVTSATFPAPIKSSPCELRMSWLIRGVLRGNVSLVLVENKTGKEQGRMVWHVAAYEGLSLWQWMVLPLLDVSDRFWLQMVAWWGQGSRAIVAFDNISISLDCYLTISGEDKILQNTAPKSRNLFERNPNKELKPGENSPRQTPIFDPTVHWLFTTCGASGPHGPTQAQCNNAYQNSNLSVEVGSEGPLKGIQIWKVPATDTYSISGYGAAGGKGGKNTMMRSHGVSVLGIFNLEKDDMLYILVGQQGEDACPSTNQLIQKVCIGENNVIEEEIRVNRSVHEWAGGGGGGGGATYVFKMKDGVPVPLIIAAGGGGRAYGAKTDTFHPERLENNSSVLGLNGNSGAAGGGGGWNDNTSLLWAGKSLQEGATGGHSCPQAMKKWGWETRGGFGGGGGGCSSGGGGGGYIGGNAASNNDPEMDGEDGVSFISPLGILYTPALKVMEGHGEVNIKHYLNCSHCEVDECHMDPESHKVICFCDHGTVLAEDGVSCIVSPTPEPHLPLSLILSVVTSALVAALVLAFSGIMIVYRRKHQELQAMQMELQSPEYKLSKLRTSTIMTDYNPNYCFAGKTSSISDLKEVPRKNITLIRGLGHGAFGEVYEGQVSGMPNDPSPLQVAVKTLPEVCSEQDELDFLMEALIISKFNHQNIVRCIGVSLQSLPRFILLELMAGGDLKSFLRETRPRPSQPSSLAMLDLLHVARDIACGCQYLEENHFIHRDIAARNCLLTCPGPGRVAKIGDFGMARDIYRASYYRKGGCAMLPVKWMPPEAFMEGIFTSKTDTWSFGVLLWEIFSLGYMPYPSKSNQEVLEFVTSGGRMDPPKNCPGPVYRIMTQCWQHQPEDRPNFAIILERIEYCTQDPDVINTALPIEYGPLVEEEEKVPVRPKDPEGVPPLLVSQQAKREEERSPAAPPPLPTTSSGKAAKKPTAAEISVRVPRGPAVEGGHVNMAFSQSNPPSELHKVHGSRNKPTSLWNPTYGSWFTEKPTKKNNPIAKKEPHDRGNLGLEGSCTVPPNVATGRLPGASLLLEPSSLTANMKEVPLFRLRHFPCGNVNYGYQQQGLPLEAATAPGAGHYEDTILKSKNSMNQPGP

With `Cc1cc(Nc2ncc(Cl)c(Nc3ccccc3S(=O)(=O)N(C)C)n2)c2c(c1C1CCNCC1)OCO2` [Compound 2, 2-((5-chloro-2-((6-methyl-7-(piperidin-4-yl)benzol[d][1,3]dioxol-4-yl)amino)pyrimidin-4-yl)amino)-N,N-dimethylbenzenesulfonamide], the IC50 at ALK kinase [1] was 1.7 nM; in the series on NCI-H2228 (NCI-H2228, 96 h, CTG) it was 5.47 nM; in the series on NCI-H3122 (NCI-H3122, 72 h, MTS) it was 4.18 nM; in the series on Karpas-299 (KARPAS-299, 72 h, MTS), 7.66 nM.
As to `Cc1cc(Nc2ncc(Cl)c(Nc3ccccc3S(=O)(=O)C(C)C)n2)c2c(c1C1=CCNCC1)CCCO2` [Compound 8, 5-chloro-N^4-(2-(isopropylsulfonyl)phenyl)-N^2-(6-methyl-5-(1,2,3,6-tetrahydropyridine-4-yl)chroman-8-yl)pyrimidine-2,4-diamine], the IC50 on ALK kinase [2] came out at 0.54 nM; with NCI-H3122 (NCI-H3122, 72 h, MTS) it was 16.1 nM; with Karpas-299 (KARPAS-299, 72 h, MTS), 5.18 nM.
Turning to `Cc1cc(Nc2ncc(Cl)c(Nc3ccccc3S(=O)(=O)C(C)C)n2)c(OC(C)C)cc1C1CCNCC1` [Ceritinib, reference compound], the IC50 in the series on NCI-H2228 (NCI-H2228, 96 h) came to 48.1 nM; in the series with NCI-H3122 (NCI-H3122, 72 h), 138 nM; in the series on Karpas-299 (KARPAS-299, 72 h), 30 nM.
In the case of `Cc1cc(Nc2ncc(Cl)c(Nc3ccccc3S(=O)(=O)N(C)C)n2)c2c(c1C1CCNCC1)OCCO2` [Compound 3, 2-((5-chloro-2-((7-methyl-8-(piperidin-4-yl)-2,3-dihydrobenzo[b][1,4]dioxin-5-yl)amino)pyrimidin-4-yl)amino)-N,N-dimethylbenzenesulfonamide], the half-maximal inhibitory concentration (IC50) at ALK kinase [1] was 0.6 nM; in the series on NCI-H2228 (NCI-H2228, 96 h, CTG) it was 1.72 nM; with NCI-H3122 (NCI-H3122, 72 h, MTS), 43.2 nM; in the series on Karpas-299 (KARPAS-299, 72 h, MTS) it was 0.164 nM.
With `Cc1cc(Nc2ncc(Cl)c(Nc3ccccc3S(=O)(=O)C(C)C)n2)c2c(c1C1CCNCC1)OCCO2` [Compound 4, 5-chloro-N^4-(2-(isopropylsulfonyl)phenyl)-N^2-(7-methyl-8-(piperidin-4-yl)-2,3-dihydrobenzo[b][1,4]dioxin-5-yl)pyrimidine-2,4-diamine], the IC50 was found to be 0.9 nM on ALK kinase [1]; 15.1 nM in the series with NCI-H2228 (NCI-H2228, 96 h, CTG); 130 nM in the series on NCI-H3122 (NCI-H3122, 72 h, MTS); 0.71 nM in the series on Karpas-299 (KARPAS-299, 72 h, MTS). In addition, in “Pharmacokinetics in rat”, the bioavailability fell in the range of 30 to 50%.
As for `Cc1cc(Nc2ncc(Cl)c(Nc3ccccc3S(=O)(=O)C(C)C)n2)c2c(c1C1CNC1)OCCO2` [Compound 6, N^2-(8-(azetidin-3-yl)-7-methyl-2,3-dihydrobenzo[b][1,4]dioxin-5-yl)-5-chloro-N^4-(2-(isopropylsulfonyl)phenyl)pyrimidine-2,4-diamine], the IC50 at ALK kinase [2] came to 0.45 nM; with NCI-H3122 (NCI-H3122, 72 h, MTS), 61.7 nM; with Karpas-299 (KARPAS-299, 72 h, MTS), 9.92 nM.
With `Cc1cc(Nc2ncc(Cl)c(Nc3ccccc3S(=O)(=O)C(C)C)n2)c2c(c1C1CCNCC1)OCO2` [Compound 1, 5-chloro-N^4-(2-(isopropylsulfonyl)phenyl)-N^2-(6-methyl-7-(piperidin-4-yl)benzo[d][1,3]dioxol-4-yl)pyrimidine-2,4-diamine], the IC50 at ALK kinase [1] amounted to 0.2 nM; with NCI-H2228 (NCI-H2228, 96 h, CTG), 3.21 nM; in the series with NCI-H3122 (NCI-H3122, 72 h, MTS) it was 10.9 nM; with Karpas-299 (KARPAS-299, 72 h, MTS), 0.7 nM.
Turning to `Cc1cc(Nc2ncc(Cl)c(Nc3ccccc3S(=O)(=O)C(C)C)n2)c2c(c1C1CCNC1)OCCO2` (stereo not drawn) [Compound 5, 5-chloro-N^4-(2-(isopropylsulfonyl)phenyl)-N^2-(7-methyl-8-(pyrrolidin-3-yl)-2,3-dihydrobenzo[b][1,4]dioxin-5-yl)pyrimidine-2,4-diamine], the IC50 on ALK kinase [2] is 0.36 nM; in the series on NCI-H2228 (NCI-H2228, 96 h, CTG), 7.41 nM; in the series on NCI-H3122 (NCI-H3122, 72 h, MTS), 25.1 nM; in the series on Karpas-299 (KARPAS-299, 72 h, MTS), 5.36 nM.
